Test results from paper PMC9393629, “Acetogenic production of 3-Hydroxybutyrate using a native 3-Hydroxybutyryl-CoA Dehydrogenase” (Frontiers in Microbiology, 2022).

How the values were obtained:
[1] = target: T1, C. ljungdahlii Hbd2 (Clostridium ljungdahlii, UniProt D8GTU3); assay: NAD(P)H oxidation at […] nm, E. coli cell-free extract; type: biochemical; details: 75 uM NADH, 125 uM acetoacetyl-CoA; 100 mM potassium phosphate pH 6.5, 25 mM potassium citrate; vector-extract activity subtracted
T1 construct: gene mmgB_1; full-length gene expressed in E. coli, cell-free extract (bead-beating), not purified; EC 1.1.1.57 printed
T1 sequence (D8GTU3 1-313): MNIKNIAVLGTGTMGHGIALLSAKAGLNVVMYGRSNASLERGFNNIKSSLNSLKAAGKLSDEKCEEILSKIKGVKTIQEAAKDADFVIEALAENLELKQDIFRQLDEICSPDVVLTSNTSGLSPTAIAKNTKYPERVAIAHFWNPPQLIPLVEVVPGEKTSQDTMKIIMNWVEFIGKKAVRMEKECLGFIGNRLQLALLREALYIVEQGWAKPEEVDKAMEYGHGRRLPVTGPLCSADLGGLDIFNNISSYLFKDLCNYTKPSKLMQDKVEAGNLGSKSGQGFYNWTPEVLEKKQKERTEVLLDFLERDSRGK

[2] = target: T2, C. kluyveri Hbd1 (Clostridium kluyveri, UniProt A5N5D1); assay: as above; type: biochemical; details: 75 uM NADPH, 125 uM acetoacetyl-CoA; 100 mM potassium phosphate pH 6.5, 25 mM potassium citrate
T2 construct: full-length gene expressed in E. coli, cell-free extract (bead-beating), not purified
T2 sequence (A5N5D1 1-282): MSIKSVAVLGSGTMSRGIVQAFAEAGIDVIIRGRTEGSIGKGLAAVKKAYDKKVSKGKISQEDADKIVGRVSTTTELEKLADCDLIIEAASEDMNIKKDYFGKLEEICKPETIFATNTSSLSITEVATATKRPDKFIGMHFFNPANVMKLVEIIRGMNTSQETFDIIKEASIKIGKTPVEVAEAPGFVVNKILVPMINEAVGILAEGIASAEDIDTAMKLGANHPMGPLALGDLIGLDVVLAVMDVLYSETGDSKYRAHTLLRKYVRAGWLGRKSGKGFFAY

Row | SMILES | NAD(P)H oxidation at 340 nm, E. coli cell-free extract [1] | NAD(P)H oxidation at 340 nm, E. coli cell-free extract [2]
1 | NC(=O)C1=CN([C@@H]2O[C@H](COP(=O)(O)OP(=O)(O)OC[C@H]3O[C@@H](n4cnc5c(N)ncnc54)[C@H](O)[C@@H]3O)[C@@H](O)[C@H]2O)C=CC1 [NADH] | we confirmed NADH specificity and acetoacetyl-CoA-dependence | –
2 | NC(=O)C1=CN([C@@H]2O[C@H](COP(=O)(O)OP(=O)(O)OC[C@H]3O[C@@H](n4cnc5c(N)ncnc54)[C@H](OP(=O)(O)O)[C@@H]3O)[C@@H](O)[C@H]2O)C=CC1 [NADPH] | – | C. kluyveri hbd1 E. coli extracts were used as an NADPH-specific control
3 | CC(=O)CC(=O)SCCNC(=O)CCNC(=O)[C@H](O)C(C)(C)COP(=O)(O)OP(=O)(O)OC[C@H]1O[C@@H](n2cnc3c(N)ncnc32)[C@H](O)[C@@H]1OP(=O)(O)O [acetoacetyl-CoA] | we confirmed NADH specificity and acetoacetyl-CoA-dependence | Both hbd1 and hbd2 E. coli cell free extracts showed low activity without acetoacetyl-CoA
